According to patent publication US12077503B2, “Substituted cyclic amides and their use as herbicides” (FMC CORPORATION, priority 2015, dated 2024):
Read-outs that look alike come from different tables or passages of the source.

What was measured:
Test in all cases: Test A postemergence
Type in all cases: in vivo
[1] = test system: ragweed (common ragweed, Ambrosia elatior); settings: Ambrosia artemisiifolia, post-emergence, 240 h, Postemergence; for pest or weed control at 125 g/ha: 125 g ai/ha; for pest or weed control at 500 g/ha: 500 g ai/ha, visual injury, 0 to 100 scale (0 no effect, 100 complete control), approx. 10 d
How it was run: (§1)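 Treatment is preemergence as a directed soil spray after planting, or postemergence at the one- to two-leaf stage, with test chemical in a non-phytotoxic solvent mixture plus surfactant. Plants stay in the greenhouse about 10 d before visual injury scoring on a 0 to 100 scale versus untreated controls.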

[2] = test system: Galium (catchweed bedstraw, Galium aparine); settings: Galium, post-emergence, 240 h, Postemergence; for pest or weed control at 125 g/ha: 125 g ai/ha; for pest or weed control at 500 g/ha: 500 g ai/ha, visual injury, 0 to 100 scale (0 no effect, 100 complete control), approx. 10 d
How it was run: as §1

Kochia (Kochia scoparia) = settings: Bassia scoparia, post-emergence, 240 h, Postemergence; for pest or weed control at 125 g/ha: 125 g ai/ha; for pest or weed control at 500 g/ha: 500 g ai/ha, visual injury, 0 to 100 scale (0 no effect, 100 complete control), approx. 10 d
How it was run: as §1

[3] = test system: giant foxtail (Setaria faberii); settings: Setaria faberi, post-emergence, 240 h, Postemergence; for pest or weed control at 125 g/ha: 125 g ai/ha; for pest or weed control at 500 g/ha: 500 g ai/ha, visual injury, 0 to 100 scale (0 no effect, 100 complete control), approx. 10 d
How it was run: as §1

[4] = test system: barnyardgrass (Echinochloa crus-galli); settings: Echinochloa crus-galli, post-emergence, 240 h, Postemergence; for pest or weed control at 125 g/ha: 125 g ai/ha; for pest or weed control at 500 g/ha: 500 g ai/ha, visual injury, 0 to 100 scale (0 no effect, 100 complete control), approx. 10 d
How it was run: as §1

[5] = test system: blackgrass (Alopecurus myosuroides); settings: Alopecurus myosuroides, post-emergence, 240 h, Postemergence; for pest or weed control at 125 g/ha: 125 g ai/ha; for pest or weed control at 500 g/ha: 500 g ai/ha, visual injury, 0 to 100 scale (0 no effect, 100 complete control), approx. 10 d
How it was run: as §1

[6] = visual rating about 10 d after treatment, read-out: Ragweed plant response rating (0 to 100 scale)
[7] = read-out: Plant response rating, Ragweed
[8] = visual rating about 10 d after treatment, read-out: Galium plant response rating (0 to 100 scale)
[9] = read-out: Plant response rating, Galium
[10] = visual rating about 10 d after treatment, read-out: Kochia plant response rating (0 to 100 scale)
[11] = read-out: Plant response rating, Kochia
[12] = visual rating about 10 d after treatment, read-out: Foxtail, Giant plant response rating (0 to 100 scale)
[13] = read-out: Plant response rating, Foxtail, Giant
[14] = visual rating about 10 d after treatment, read-out: Barnyardgrass plant response rating (0 to 100 scale, 0 no effect, 100 complete control)
[15] = read-out: Plant response rating, Barnyardgrass
[16] = visual rating about 10 d after treatment, read-out: Blackgrass plant response rating (0 to 100 scale)
[17] = read-out: Plant response rating, Blackgrass
[18] = visual injury after approx. 10 d, 0 to 100 scale, 0 no effect, 100 complete control, read-out: Plant response rating, Ragweed
[19] = visual injury after approx. 10 d, 0 to 100 scale, 0 no effect, 100 complete control, read-out: Plant response rating, Galium
[20] = visual injury after approx. 10 d, 0 to 100 scale, 0 no effect, 100 complete control, read-out: Plant response rating, Kochia
[21] = visual injury after approx. 10 d, 0 to 100 scale, 0 no effect, 100 complete control, read-out: Plant response rating, Foxtail, Giant
[22] = visual injury after approx. 10 d, 0 to 100 scale, 0 no effect, 100 complete control, read-out: Plant response rating, Barnyardgrass
[23] = visual injury after approx. 10 d, 0 to 100 scale, 0 no effect, 100 complete control, read-out: Plant response rating, Blackgrass

SMILES	pest or weed control at 125 g/ha [1, 6] [%]	pest or weed control at 500 g/ha [1, 7] [%]	pest or weed control at 125 g/ha [2, 8] [%]	pest or weed control at 500 g/ha [2, 9] [%]	pest or weed control at 125 g/ha (Kochia (Kochia scoparia); [10]) [%]	pest or weed control at 500 g/ha (Kochia (Kochia scoparia); [11]) [%]	pest or weed control at 125 g/ha [3, 12] [%]	pest or weed control at 500 g/ha [3, 13] [%]	pest or weed control at 125 g/ha [4, 14] [%]	pest or weed control at 500 g/ha [4, 15] [%]	pest or weed control at 125 g/ha [5, 16] [%]	pest or weed control at 500 g/ha [5, 17] [%]	pest or weed control at 125 g/ha [1, 18] [%]	pest or weed control at 125 g/ha [2, 19] [%]	pest or weed control at 125 g/ha (Kochia (Kochia scoparia); [20]) [%]	pest or weed control at 125 g/ha [3, 21] [%]	pest or weed control at 125 g/ha [4, 22] [%]	pest or weed control at 125 g/ha [5, 23] [%]
CN1CC[C@H](c2cccc(C(F)(F)F)c2)[C@@H](C(=O)Nc2cccc(F)c2F)C1=O [Compound 1330]	0	20	30	30	0	20	90	90	90	90	50	70						
CN1CC[C@H](c2cccc(C(F)(F)F)c2)[C@@H](C(=O)Nc2ccccc2F)C1=O [Compound 1331]	0	0	0	0	0	0	90	90	90	90	20	50						
CN1C[C@H](c2cc(C(F)(F)F)cs2)[C@@H](C(=O)Nc2cccc(F)c2F)C1=O [Compound 1377]	20	60	40	60	50	70	80	80	90	90	20	60						
CN1C[C@H](c2ccc(C(F)F)cc2)[C@@H](C(=O)Nc2cccc(F)c2F)C1=O [Compound 1383]	50	60	60	60	70	70	90	90	100	100	40	50						
O=C1NC[C@H](c2cccc(C(F)(F)F)n2)[C@H]1C(=O)Nc1cccc(F)c1F [Compound 1385]		0		50		0		90		90		20	0	30	0	70	80	20
CSc1ccccc1NC(=O)[C@H]1C(=O)N(C)C[C@@H]1c1ccc(C(F)(F)F)cc1 [Compound 1391]		60		70		80		90		100		70	20	70	70	90	90	40
O=C1NC[C@H](c2cncc(C(F)(F)F)c2)[C@H]1C(=O)Nc1cccc(F)c1F [Compound 1394]		20		60		0		90		90		60	0	50	0	80	90	0
